Results published in patent US20060052457A1, “Use of ppar alpha agonists for the treatment of vascular and renal diseases” (priority 2002, published 2006).
“Also recorded” adds a separate entry of the source.

What was measured:
H4IIE hepatoma cells [1] = test: Basal DNA synthesis without mitogenic stimulation, quiescent H4IIE hepatoma cells; type: cell-based
Description: (§1) Quiescent SMCs (panel A) and H4IIE cells (panel B) were treated with PGJ2 and incorporation of thymidine was measured as previously described. Quiescent SMCs were also treated with WY-14643 (panel C) and incorporation of thymidine was measured. The data are presented as means±s.e. (n=3).

[2] = tested on: porcine coronary artery smooth muscle cells; test: Basal DNA synthesis without mitogenic stimulation, quiescent porcine coronary artery SMCs; type: cell-based; conditions: for basal DNA synthesis in the absence of mitogenic stimulation: quiescent porcine coronary artery SMCs
Description: as §1

[3] = tested on: porcine coronary artery smooth muscle cells; test: [3H]thymidine incorporation (DNA synthesis) after PDGF stimulation, porcine coronary artery SMCs; type: cell-based; conditions: PDGF 0.1 μg, 72 h
Description: (§2) SMCs were prepared by explant culture as previously described, grown in 24-well culture dishes to 70% confluence and then placed into serum-free DMEM supplemented with insulin, ascorbate, pyruvate and selenium for 5 days. These conditions result in the cessation of cell growth, and markers of the contractile state are expressed. The cells were subsequently treated with PDGF (0.1 μg) in the presence or absence of WY-14643, and 2 μCi/mL [^3H]thymidine were added to the culture medium 24 hours later. Seventy-two hours following PDGF treatment, incorporation of thymidine into trichloroacetate-precipitable material was measured. The data, which is presented as means±s.e. (n=3), are shown for porcine SMCs (panel A), human saphenous vein SMCs (panel B) and human internal mammary artery SMCs (panel C). All values have been normalized relative to the incorporation in unstimulated quiescent cells (control=100).
Quiescent SMCs were treated with PDGF (01. μg/ml) in the presence and absence of PGJ2, and incorporation of thymidine was measured as previously described. The data are presented as means±s.e. (n=3).
Quiescent SMCs were treated with PDGF (0.1 μg) in the presence or absence of clofibrate, and incorporation of thymidine was measured as previously described. The data are presented as means±s.e. (n=3).

smooth muscle cells = test: DNA synthesis by smooth muscle cells with PPAR-gamma agonists (FIG. 13); type: cell-based
[4] = tested on: Porcine coronary arteries; test: Organ culture model of restenosis (balloon angioplasty ex vivo, neointimal index); type: cell-based; conditions: 250 μM continuous, 14 days in culture after balloon angioplasty ex vivo
Description: Porcine coronary arteries were subjected to balloon angioplasty ex vivo and placed into culture for 14 days. Treatment with WY-14643 (250 μM) was continuous over the entire time period. Subsequently, the vessel segments were sectioned and morphometry was employed to quantify the extent of restenosis. The neointimal index is defined as: neointimal area/medial area. The data are presented as means±s.e. (n=8). Control=no balloon angioplasty.

[5] = tested on: human proximal tubule cells; test: Growth (cell number, Coulter counter) of human proximal tubule cells; type: cell-based
Description: Human proximal tubule cells were purchased from Clonetics and propagated in 24-well culture dishes with Renal Epithelial Cell Basal medium (REBM) containing 0.5% fetal bovine serum (FBS). Treatments were added once the cells reached 40% confluence. Incubation was continued for 4 days, at which time the cells were detached by trypsinization and cell number measured with a Coulter counter. All comparisons are relative to a cell population treated with 5 μg/ml aphidicolin, a non-toxic inhibitor of cell proliferation. The data are presented as means+/−s.e. (n=6).

[6] = tested on: human saphenous vein SMCs; test: [3H]thymidine incorporation (DNA synthesis) after PDGF stimulation, human saphenous vein SMCs; type: cell-based; conditions: PDGF 0.1 μg, 72 h
Description: as §2, with “C).” for “C). All values have been normalized relative to the incorporation in unstimulated quiescent cells (control=100).”

A10 smooth muscle cells = test: [3H]thymidine incorporation (DNA synthesis) by A10 smooth muscle cells after PDGF or IGF-1; type: cell-based, rat; conditions: A10 SMCs, 72 h
Description: […] were cultured and quiescent cells were prepared in 24-well culture dishes as described in the legend for FIG. 2. The cells were treated with PDGF (0.1 μg) or IGF-1 (0.1 μM) in the presence or absence of WY-14643, and 2 μCi/mL [^3H]thymidine were added to the medium concurrent with the mitogens. Seventy-two hours following treatment, the cells were lysed and thymidine incorporation was measured as described above. […] (n=3), for A10 cells treated with PDGF (panel A) and IGF-1 (panel B).

[7] = tested on: human internal mammary artery SMCs; test: [3H]thymidine incorporation (DNA synthesis) after PDGF stimulation, human internal mammary artery SMCs; type: cell-based; conditions: PDGF 0.1 μg, 72 h
Description: as §2, with “C).” for “C). All values have been normalized relative to the incorporation in unstimulated quiescent cells (control=100).”

H4IIE hepatoma cells [8] = test: [3H]thymidine incorporation (DNA synthesis) by H4IIE hepatoma cells after IGF-1; type: cell-based; conditions: IGF-1 0.1 μM, 72 h
Description: H4IIE hepatoma cells were cultured and quiescent cells were prepared in 24-well culture dishes by placing the cells into serum-free α-MEM for 3 days. The cells were treated with IGF-1 (0.1 μM) in the presence or absence of WY-14643, and 2 μCi/mL [^3H]thymidine were added concurrent with the treatment. Seventy-two hours following treatment, the cells were lysed and thymidine incorporation was measured as described above. The data are presented as means+/−s.e. (n=3).

Structure (SMILES): CCCCC[C@H](O)/C=C/[C@H]1C(=O)C=C[C@@H]1C/C=C\CCCC(=O)O [PGJ2]
- basal DNA synthesis in the absence of mitogenic stimulation (H4IIE hepatoma cells [1]): inhibits basal DNA synthesis
- basal DNA synthesis in the absence of mitogenic stimulation [2]: inhibits basal DNA synthesis
- DNA synthesis (thymidine incorporation) in response to PDGF stimulation [3]: inhibits DNA synthesis; also recorded: is inhibitory

Structure (SMILES): CCc1ccc(CCOc2ccc(CC3SC(=O)NC3=O)cc2)nc1 (stereo not drawn) [piaglitazone]
- inhibition of DNA synthesis by smooth muscle cells (smooth muscle cells): are not

Structure (SMILES): Cc1cccc(Nc2cc(Cl)nc(SCC(=O)O)n2)c1C [WY-14643]
- neointimal proliferation / restenosis (neointimal index) [4]: inhibits neointimal proliferation; also recorded: prevent restenosis
- growth of human proximal tubule cells (cell number) ([5]; 4 days incubation, relative to aphidicolin 5 μg/ml): prevented cell growth; also recorded: effectively inhibits the growth
- apparent toxicity in primary human renal proximal tubule cells ([5]; primary cultures): without apparent toxicity
- DNA synthesis (thymidine incorporation) in response to PDGF stimulation [6]: inhibited DNA synthesis
- DNA synthesis in response to IGF-1 stimulation (A10 smooth muscle cells; IGF-1 0.1 μM): does not inhibit DNA synthesis; also recorded: could not inhibit the growth
- DNA synthesis in response to PDGF stimulation (A10 smooth muscle cells; PDGF 0.1 μg): does not inhibit DNA synthesis; also recorded: could not inhibit the growth
- basal DNA synthesis in the absence of mitogenic stimulation [2]: has no effect
- apparent toxicity / cytotoxicity (FIG. 9) ([2]; stated with reference to FIG. 9): without apparent toxicity
- DNA synthesis (thymidine incorporation) in response to PDGF stimulation [7]: inhibited DNA synthesis
- DNA synthesis in response to stimulation by IGF-1 (H4IIE hepatoma cells [8]): inhibits DNA synthesis; also recorded: prevented cell growth
- DNA synthesis (thymidine incorporation) in response to PDGF stimulation [3]: inhibited DNA synthesis; also recorded: can inhibit smooth muscle cell proliferation
